The record followed here is publication PMC5688144, “Assay interference and off-target liabilities of reported histone acetyltransferase inhibitors” (Nature Communications, 2017).

The target in series [1] is T1, AmpC β-lactamase (Escherichia coli, UniProt P00811).
T1 construct: Recombinant E. coli AmpC (amino acids 20–377); purchased MyBioSource.com
The series can be described thus: biochemical. Also on record: species or system E. coli. To be noted: 10 μM compound; ± 0.01% Triton X-100. The procedure, abridged:
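Compounds at 10 μM (2% DMSO, triplicate) were preincubated 5 min at RT with ~5 nM E. coli AmpC (residues 20–377) in 25 mM sodium phosphate pH 7.0, with or without 0.01% Triton X-100, then given 100 μM nitrocefin. Activity was normalized to DMSO; aggregation was called on a detergent-dependent change >30% (adjusted P <0.05).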

A short description of series [2]: UPLC-MS gross compound stability in assay buffer. To be noted: 25 mM sodium phosphate, pH 7.0, 30 °C, no GSH or CoA. As to the method: Select compounds were incubated up to 24 h for additional stability analyses. Chromatograms and mass spectra were qualitatively analyzed for the formation of new peaks and/or loss of parent peaks.
A short description of series [3]: Absorbance spectra. The class given is physicochemical. To be noted: for Absorption max (nm) / Absorbance counter-screen: 25 mM sodium phosphate, pH 7.0; for Absorbance counter-screen: 300-750 nm; for Molar absorptivity: at absorption max. The procedure, abridged: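 Spectra from 300 to 750 nm were recorded at 100, 50 and 10 μM final compound in 25 mM sodium phosphate pH 7.0 with 2.0% DMSO, after 10 min at RT, read at 25 °C. Significant absorbance meant molar absorptivity above 2000 M^−1 cm^−1 at wavelengths above 300 nm.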
Background: The purpose of a counterscreen is to sort out artefacts and off-target activity.

Series [4] in a line: Autofluorescence counter-screen. The class given is physicochemical. To be noted: autofluorescence at eight fluorophore settings; 32 nM-100 μM compound. How it is done:
Selected test compounds were assessed for autofluorescence using an adaption of published procedures. […] Final concentration of DMSO was constant at 1.0% (v/v). Compounds and fluorophore standards were transferred as 10 mM DMSO stock solutions to 384-well black polystyrene microplates via Echo 550 dispenser. The plate arrangement was purposefully designed to minimize optical crosstalk by fluorophore standards. All measurements were performed in ALARM NMR buffer (25 mM sodium phosphate, pH 7.0) at 25 °C. Aliquots of 20 μL buffer were dispensed into microplate wells via ThermoFisher Multidrop dispenser. Compounds were shaken for 1 min on a plate shaker, centrifuged briefly for 1 min at 1000×g, then allowed to incubate at RT in buffer for 10 min before measuring fluorescence intensity on a SpectraMax M3 plate reader under reduced lighting. […] Bandwidth filters were set to default mode. Fluorescence intensity was measured for each test compound using each of the eight fluorophore standard settings. Fluorophores present on each plate were then used to construct normalized fluorescence dose-responses (“fluorophore-equivalent concentrations”, FEC). Fluorescence intensity for each test compound was converted to the appropriate FEC.

T1 sequence (P00811 20-377): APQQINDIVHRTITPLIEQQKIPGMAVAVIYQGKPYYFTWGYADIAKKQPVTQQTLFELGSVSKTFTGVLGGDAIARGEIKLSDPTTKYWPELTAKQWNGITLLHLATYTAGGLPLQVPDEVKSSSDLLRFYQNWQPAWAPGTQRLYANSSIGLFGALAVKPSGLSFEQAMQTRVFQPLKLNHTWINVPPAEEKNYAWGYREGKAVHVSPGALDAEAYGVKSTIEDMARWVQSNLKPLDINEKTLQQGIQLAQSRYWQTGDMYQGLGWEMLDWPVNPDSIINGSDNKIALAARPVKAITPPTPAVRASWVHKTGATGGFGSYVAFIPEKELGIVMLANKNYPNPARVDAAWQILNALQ

`COc1cc(/C=C/C(=O)CC(=O)/C=C/c2ccc(O)c(OC)c2)ccc1O` [Compound 11, Curcumin]: the AmpC aggregation counter-screen entry in series [1] is “Detergent-sensitive (Aggregators were defined as compounds with significant detergent-dependent changes in AmpC activity (t-test, adjusted P-value <0.05; mean differences greater than 30%))”. Moreover, the “UPLC-MS buffer stability counter-screen” value in series [2] was “Gross degradation observed; loss of parent peak, appearance of new peaks”. Moreover, in series [3], the “Absorption max (nm)” value was 425 nm, the Absorbance counter-screen entry is reported as “Flagged (Significant absorbance was defined as molar absorptivity constants greater than 2000 M^−1 cm^−1 at wavelengths greater than 300 nm)” and the “Molar absorptivity” value is 20000 M⁻¹ cm⁻¹. In series [4], the Fluorescence counter-screen entry is given as “Negative”.
As to `O=C1/C(=C/c2ccc(O)c(Br)c2)CCC/C1=C\c1ccc(O)c(Br)c1` [Compound 12, HAT inhibitor II], the AmpC aggregation counter-screen entry in series [1] is recorded as “Detergent-sensitive (Aggregators were defined as compounds with significant detergent-dependent changes in AmpC activity (t-test, adjusted P-value <0.05; mean differences greater than 30%))”. Also, in series [2], the “UPLC-MS buffer stability counter-screen” value is listed as “Gross degradation observed; loss of parent peak”. In series [3], the “Absorption max (nm)” value is recorded as 355 nm, the Absorbance counter-screen result is listed as “Flagged (Significant absorbance was defined as molar absorptivity constants greater than 2000 M^−1 cm^−1 at wavelengths greater than 300 nm)” and the “Molar absorptivity” value amounted to 5100 M⁻¹ cm⁻¹. In series [4], the Fluorescence counter-screen entry is recorded as “Negative”.
`COc1ccc(/C(Cl)=C(/C=O)c2ccc(OC)cc2)cc1` [Compound 18, Windorphen]: the AmpC aggregation counter-screen entry in series [1] is given as “Detergent-insensitive”. Further, in series [2], the “UPLC-MS buffer stability counter-screen” value is recorded as “Grossly stable”. Also, in series [3], the “Absorption max (nm)” value was 345 nm, the Absorbance counter-screen result was “Flagged (Significant absorbance was defined as molar absorptivity constants greater than 2000 M^−1 cm^−1 at wavelengths greater than 300 nm)” and the “Molar absorptivity” value was determined as 4300 M⁻¹ cm⁻¹. In addition, the Fluorescence counter-screen result in series [4] was “Negative”.
Consider `CCCC1(c2ccccc2)NC(=O)N(CC(=O)N(C)Cc2c(F)cccc2Cl)C1=O` (centres unmarked) [Compound 21, N-[(2-chloro-6-fluorophenyl)methyl]-2-(2,5-dioxo-4-phenyl-4-propylimidazolidin-1-yl)-N-methylacetamide], for which the AmpC aggregation counter-screen result in series [1] is given as “Detergent-insensitive”. Moreover, the “UPLC-MS buffer stability counter-screen” value in series [2] is recorded as “Grossly stable”. Moreover, in series [3], the “Absorption max (nm)” value is “Nominal” and the Absorbance counter-screen result is “Negative”. In addition, the Fluorescence counter-screen entry in series [4] is listed as “Negative”.
Take Plumbagin [Compound 8]: in series [1], the AmpC aggregation counter-screen entry is on record as “Detergent-insensitive”. The “UPLC-MS buffer stability counter-screen” value in series [2] is recorded as “Grossly stable”. Also, in series [3], the “Absorption max (nm)” value came to 420 nm, the Absorbance counter-screen entry is “Flagged (Significant absorbance was defined as molar absorptivity constants greater than 2000 M^−1 cm^−1 at wavelengths greater than 300 nm)” and the “Molar absorptivity” value is 3200 M⁻¹ cm⁻¹. Also, the Fluorescence counter-screen entry in series [4] is “Negative”.
